These results are taken from article PMC10996616 (bioRxiv, 2024).

For test [1], the target named is PaFSCY (individual cyclase domain of fusicoccadiene synthase) (Diaporthe amygdali, UniProt A2PZA5). As to the kind of experiment: EnzChek pyrophosphate release, steady-state kinetics, A360. Format: biochemical. As to conditions: Mg2+ 2.5 mM, pH 7.5; cyclization to fusicoccadiene.
For test [2], the target named is PaFS (full-length fusicoccadiene synthase) (Diaporthe amygdali, UniProt A2PZA5). Described as above. As to conditions: Mg2+ 2.5 mM, pH 7.5; cyclization to fusicoccadiene; cyclase domain. Format: biochemical.
Sequence of PaFS (full-length fusicoccadiene synthase) (A2PZA5 whole entry, the tested form may be a part): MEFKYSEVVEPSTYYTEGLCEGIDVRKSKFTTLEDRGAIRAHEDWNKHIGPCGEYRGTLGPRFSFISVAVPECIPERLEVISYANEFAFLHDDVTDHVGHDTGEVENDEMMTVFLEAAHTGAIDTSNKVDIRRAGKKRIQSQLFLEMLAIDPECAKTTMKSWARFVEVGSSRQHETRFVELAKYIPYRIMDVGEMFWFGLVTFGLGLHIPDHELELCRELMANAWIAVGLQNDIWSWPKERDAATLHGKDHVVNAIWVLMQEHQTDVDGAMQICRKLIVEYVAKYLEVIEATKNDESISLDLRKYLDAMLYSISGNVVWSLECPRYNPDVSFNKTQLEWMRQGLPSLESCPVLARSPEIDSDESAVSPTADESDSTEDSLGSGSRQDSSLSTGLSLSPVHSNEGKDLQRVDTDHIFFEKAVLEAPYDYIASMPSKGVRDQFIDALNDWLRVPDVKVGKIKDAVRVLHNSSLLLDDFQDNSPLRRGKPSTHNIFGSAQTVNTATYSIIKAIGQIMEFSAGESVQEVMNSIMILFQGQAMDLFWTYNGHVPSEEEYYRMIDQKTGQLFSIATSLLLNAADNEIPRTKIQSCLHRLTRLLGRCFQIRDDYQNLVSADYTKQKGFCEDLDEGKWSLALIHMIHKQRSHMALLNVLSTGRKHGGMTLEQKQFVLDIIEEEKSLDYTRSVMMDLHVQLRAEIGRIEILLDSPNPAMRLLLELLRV

Sequence of PaFSCY (individual cyclase domain of fusicoccadiene synthase) (A2PZA5 1-344): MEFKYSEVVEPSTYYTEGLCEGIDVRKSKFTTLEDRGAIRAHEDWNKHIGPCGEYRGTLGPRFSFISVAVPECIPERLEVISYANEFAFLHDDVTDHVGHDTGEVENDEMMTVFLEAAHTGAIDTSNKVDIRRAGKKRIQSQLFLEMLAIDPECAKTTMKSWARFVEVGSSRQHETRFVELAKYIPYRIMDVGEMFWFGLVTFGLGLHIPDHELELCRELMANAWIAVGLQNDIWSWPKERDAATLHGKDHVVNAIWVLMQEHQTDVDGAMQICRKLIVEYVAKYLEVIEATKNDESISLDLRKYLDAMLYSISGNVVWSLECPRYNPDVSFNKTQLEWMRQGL

Turning to `CC(C)=CCC/C(C)=C/CC/C(C)=C/CC/C(C)=C/COP(=O)(O)OP(=O)(O)O` [GGPP, geranylgeranyl diphosphate], the KM entry is “(PaFS, PaFSLL, and PaFSCY) are most efficient” in test [1]; “(PaFS, PaFSLL, and PaFSCY) are most efficient” in test [2].
